Reference: patent publication US10143681B2, “Factor XIa inhibitors” (MERCK SHARP & DOHME CORP., priority 2016, dated 2018)

Columns and labels:
[1] = tested on: Human plasma (intrinsic coagulation cascade); assay: Activated Partial Thromboplastin Time (aPTT) Assay; conditions: concentration that causes a 50% (1.5×) increase of clot time over vehicle
Experimental: Activated partial thromboplastin time (aPTT) is a clotting test that measures the intrinsic coagulation cascade. The test is performed in sodium citrated plasma. Human plasma is made by collecting blood from healthy donors of both genders into Na citrate tubes (Sarstedt coagulation 9NC/10 ml). Blood is centrifuged at 1500×g and the plasma is collected. aPTT is checked on each individual donor and those within the normal range (28-40 seconds) are pooled, aliquoted, and stored at −80 C. Test samples are prepared by spiking inhibitors or vehicle into plasma. These spiked samples are then run on a coagulation analyzer (STA-R Evolution, Stago Diagnostica). In general, the analyzer performs the following steps: Factor XII is activated by addition of ellagic acid (Pacific Hemostasis), and then time to clot is measured after re-calcification of the sample. Inhibition of FXI will cause aPTT clot time to be prolonged. The data is expressed as percent increase over vehicle control clot time and the concentration that causes a 50% (1.5×) percent increase of clot time are reported.

human Factor XIa = human Factor XIa (Homo sapiens (Human), UniProt P03951); assay: Factor XIa Assay; format: biochemical; conditions: for IC50: human Factor XIa 0.04 nM, 30 min pre-incubation at 25° C., substrate GPR-AFC, read-out: FXIa IC50
Chain of human Factor XIa (P03951 388-625): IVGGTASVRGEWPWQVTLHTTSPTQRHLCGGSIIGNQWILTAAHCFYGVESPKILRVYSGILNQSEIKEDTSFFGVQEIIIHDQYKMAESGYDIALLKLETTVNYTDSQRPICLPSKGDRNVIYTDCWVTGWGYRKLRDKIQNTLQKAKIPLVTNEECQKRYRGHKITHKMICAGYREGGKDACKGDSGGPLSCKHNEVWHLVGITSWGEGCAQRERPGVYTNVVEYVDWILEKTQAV
Chain of human Factor XIa (P03951 19-387 partner): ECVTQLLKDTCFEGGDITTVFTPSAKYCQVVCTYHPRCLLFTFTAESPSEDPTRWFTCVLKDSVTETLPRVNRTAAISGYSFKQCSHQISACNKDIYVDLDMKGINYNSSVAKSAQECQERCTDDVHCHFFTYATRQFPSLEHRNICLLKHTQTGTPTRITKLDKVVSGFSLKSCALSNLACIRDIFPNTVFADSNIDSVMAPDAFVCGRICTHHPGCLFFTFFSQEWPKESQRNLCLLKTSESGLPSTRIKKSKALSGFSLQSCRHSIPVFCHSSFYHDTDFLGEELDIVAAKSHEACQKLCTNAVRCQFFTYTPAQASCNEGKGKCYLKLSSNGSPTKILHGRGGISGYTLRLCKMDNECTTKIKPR
Experimental: The effectiveness of a compound of the present invention as an inhibitor of Coagulation Factor XIa can be determined using a relevant purified serine protease, and an appropriate synthetic substrate. The rate of hydrolysis of the chromogenic or fluorogenic substrate by the relevant serine protease was measured both in the absence and presence of compounds of the present invention. Assays were conducted at room temperature or at 37° C. […] A decrease in the rate of fluorescence change in the presence of inhibitor is indicative of enzyme inhibition. Such methods are known to one skilled in the art. The results of this assay are expressed as the half-maximal inhibitory concentrations (IC50), or the inhibitory constant, Ki.
Compounds were pre-incubated for 30 minutes at 25° C. with human (0.04 nM) Factor XIa in 50 mM HEPES buffer with 150 mM sodium chloride, 5 mM calcium chloride, 0.1% PEG 8000, pH 7.4. Factor XIa enzymatic activity was determined by addition of the substrate glycine-proline-arginine-7-amido-4-trifluoromethylcoumarin (GPR-AFC) and measurement of the fluorescence at 400/505 nm after a 60 minute incubation at 25° C. The % inhibition for each data point was calculated from the data and analyzed using the log (inhibitor) vs. response four parameters equation to determine the half-maximal inhibitory concentrations (IC50). The IC50 were converted to equilibrium inhibitory constants (Ki) using the Cheng-Prusoff equation.

| SMILES | aPTT (1.5x) [1] [µM] | IC50 (human Factor XIa) [nM] | inhibition at 1 µM (human Factor XIa; @ 1000 nM compound, read-out: FXIa % Inh. @ 1000 nM) [%] |
| --- | --- | --- | --- |
| CC1CCC1CC(C(=O)Nc1ccc(C(=O)O)cc1)c1ccc(-c2c(OC(F)F)ccc(Cl)c2F)c[n+]1[O-] (single isomer, unassigned) [Example 105, 2-(1-((4-carboxyphenyl)amino)-3-(2-methylcyclobutyl)-1-oxopropan-2-yl)-5-(3-chloro-6-(difluoromethoxy)-2-fluorophenyl)pyridine 1-oxide] | 1.13 | 0.61 |  |
| O=C(O)c1ccc(NC(=O)[C@@H](CC2CC2)c2ccc(-c3c(C(F)F)ccc(Cl)c3F)c[n+]2[O-])cc1 (mixture of isomers) [Example 23, (S)- and (R)-2-(1-((4-carboxyphenyl)amino)-3-cyclopropyl-1-oxopropan-2-yl)-5-(3-chloro-6-(difluoromethyl)-2-fluorophenyl)pyridine 1-oxide] | 0.61 |  |  |
| CC(C)Oc1ccc(Cl)c(F)c1-c1ccc(C(CC2CC2)C(=O)Nc2ccc(C(=O)O)cc2)[n+]([O-])c1 (single isomer, unassigned) [Example 16, (S)- or (R)-4-[(2-{5-[3-chloro-2-fluoro-6-(1-methylethoxy)phenyl]-1-oxidopyridin-2-yl}-3-cyclopropylpropanoyl)amino] benzoic acid] | >100 | > 1000 | 33 |
| O=C(O)c1ccc(NC(=O)C(CC2CCCC2)c2ccc(-c3c(OC(F)F)ccc(Cl)c3F)c[n+]2[O-])cc1 (single isomer, unassigned) [Example 18, (S)- or (R)-4-[(2-{5-[3-chloro-6-(difluoromethoxy)-2-fluorophenyl]-1-oxidopyridin-2-yl}-3-cyclopentylpropanoyl)amino] benzoic acid] | >100 | 100 |  |
| CCOc1ccc(Cl)c(F)c1-c1ccc(C(CC2CC2)C(=O)Nc2ccc(C(=O)O)cc2)[n+]([O-])c1 (single isomer, unassigned) [Example 8, (S)- or (R)-4-({2-[5-(3-chloro-6-ethoxy-2-fluorophenyl)-1-oxidopyridin-2-yl]-3-cyclopropylpropanoyl}amino) benzoic acid] | >100 | 968 |  |
| CC1(O)CC(CC(C(=O)Nc2ccc(C(=O)O)cc2)c2ccc(-c3c(C(F)F)ccc(Cl)c3F)c[n+]2[O-])C1 (single isomer, unassigned) [Example 85, 2-(1-((4-carboxyphenyl)amino)-3-(3-hydroxy-3-methylcyclobutyl)-1-oxopropan-2-yl)-5-(3-chloro-6-(difluoromethyl)-2-fluorophenyl)pyridine 1-oxide] | 1 |  |  |
| COc1cc(C(CC2CC2)C(=O)Nc2ccc(C(=O)O)cc2)[n+]([O-])cc1-c1c(C(F)F)ccc(Cl)c1F [Example 69, (S)- and (R)-2-(1-((4-carboxyphenyl)amino)-3-cyclopropyl-1-oxopropan-2-yl)-5-(3-chloro-6-(difluoromethyl)-2-fluorophenyl)-4-methoxypyridine 1-oxide] | 1.92 |  |  |
| O=C(O)c1ccc(NC(=O)[C@@H](CC2CCC2)c2ccc(-c3c(C(F)F)ccc(Cl)c3F)c[n+]2[O-])cc1 (mixture of isomers) [Example 4, (S)- and (R)-2-(1-((4-Carboxyphenyl)amino)-3-cyclobutyl-1-oxopropan-2-yl)-5-(3-chloro-6-(difluoromethyl)-2-fluorophenyl)pyridine 1-oxide] | 0.55 |  |  |
| CC1(O)CC(CC(C(=O)Nc2ccc(C(=O)O)cc2)c2ccc(-c3c(C(F)F)ccc(Cl)c3F)c[n+]2[O-])C1 (single isomer, unassigned) [Example 83, 2-(1-((4-carboxyphenyl)amino)-3-(3-hydroxy-3-methylcyclobutyl)-1-oxopropan-2-yl)-5-(3-chloro-6-(difluoromethyl)-2-fluorophenyl)pyridine 1-oxide] | 0.62 |  |  |
